Data on five molecules can be found in ChEMBL document CHEMBL1128372, “Design and syntheses of potent and selective dipeptide inhibitors of Candida albicans myristoyl-CoA:protein N-myristoyltransferase” (J Med Chem, 1995).

The target of test [1] is T1, Peptide N-myristoyltransferase (Homo sapiens, UniProt P30419+O60551).
T1 sequence (P30419 whole entry): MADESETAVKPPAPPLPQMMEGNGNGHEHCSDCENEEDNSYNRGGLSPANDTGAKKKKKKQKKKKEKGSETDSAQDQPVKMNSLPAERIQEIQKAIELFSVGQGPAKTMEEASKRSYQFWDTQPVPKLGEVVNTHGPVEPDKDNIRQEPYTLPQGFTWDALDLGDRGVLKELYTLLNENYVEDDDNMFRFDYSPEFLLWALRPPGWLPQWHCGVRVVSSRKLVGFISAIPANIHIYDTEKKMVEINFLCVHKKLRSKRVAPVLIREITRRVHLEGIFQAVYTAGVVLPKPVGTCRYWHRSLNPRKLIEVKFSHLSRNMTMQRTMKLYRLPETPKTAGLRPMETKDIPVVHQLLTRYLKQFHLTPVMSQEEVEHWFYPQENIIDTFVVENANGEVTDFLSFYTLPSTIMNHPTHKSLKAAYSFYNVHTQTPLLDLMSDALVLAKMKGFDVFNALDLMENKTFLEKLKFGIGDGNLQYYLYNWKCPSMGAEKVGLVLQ
T1 sequence (O60551 whole entry): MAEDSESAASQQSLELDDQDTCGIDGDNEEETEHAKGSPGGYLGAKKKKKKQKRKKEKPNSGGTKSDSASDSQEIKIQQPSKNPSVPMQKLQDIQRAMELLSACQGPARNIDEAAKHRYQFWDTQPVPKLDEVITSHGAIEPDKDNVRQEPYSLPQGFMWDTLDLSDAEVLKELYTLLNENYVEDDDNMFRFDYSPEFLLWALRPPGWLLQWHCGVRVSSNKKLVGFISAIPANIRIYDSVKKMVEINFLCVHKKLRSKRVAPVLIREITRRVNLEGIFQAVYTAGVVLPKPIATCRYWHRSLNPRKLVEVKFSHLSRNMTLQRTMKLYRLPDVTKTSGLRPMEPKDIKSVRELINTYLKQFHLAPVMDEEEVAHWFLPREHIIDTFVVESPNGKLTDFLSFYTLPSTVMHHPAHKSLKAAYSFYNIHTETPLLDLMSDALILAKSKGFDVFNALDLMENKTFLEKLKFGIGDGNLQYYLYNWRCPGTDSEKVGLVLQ
The test can be described thus: Inhibitory activity against human N-Myristoyltransferase (NMT). It is filed as protein assay.

For test [2], the target named is Peptide N-myristoyltransferase (Candida albicans).
A short description of test [3]: Selectivity is the ratio of the IC50 against human NMT to the IC50 against Candida albicans NMT. The test is classed as functional.
Test [4] deals with Peptide N-myristoyltransferase (Candida albicans). This is another data set of the same source.
For test [5], the target named is T1, Peptide N-myristoyltransferase. The test can be described thus: Apparent binding affinity against Human NMT. The test is classed as protein assay.

Where a SMILES comes first, the peptide text is derived from it. [ ]: non-standard residue; d: D form. Aun = NCCCCCCCCCCC(=O)O

By IC50 is commonly meant the concentration that gives 50% inhibition. For the molecule `CC(C)CCNC(=O)[C@H](CCCCN)NC(=O)[C@H](CO)NC(=O)CCCCCCCCCCN`, the figures for the IC50 in test [1] and in test [2] were 420 nM and 780 nM, respectively. Besides, the Selectivity in test [3] stood at 0.5.
Turning to `NCCCC[C@H](NC(=O)[C@H](CO)NC(=O)Cc1ccc(CCCCn2ccnc2)cc1)C(=O)NCCC1CCCCC1`, the IC50 in test [1] was found to be 16000 nM; in test [2], 420 nM. In test [4], the Ki is 590 nM. Moreover, the Selectivity in test [3] stood at 38.
For the molecule `CC(C)C[C@H](NC(=O)[C@H](CCCCN)NC(=O)[C@H](CO)NC(=O)CCCCCCCCCCN)C(N)=O` (H-[Aun]SKL-NH2), the IC50 in test [1] is 230 nM; in test [2] it was 1200 nM. The Selectivity in test [3] came to 0.2.
For `NCCCCCCCCCCC(=O)N[C@@H](CO)C(=O)N[C@@H](CCCCN)C(=O)NCCC1CCCCCCC1`, the IC50 in test [1] worked out at 1140 nM; in test [2] it was 300 nM. The same molecule yielded a Ki in test [4] of 130 nM. The Selectivity in test [3] is 3.8.
As for `NCCCC[C@H](NC(=O)[C@H](CO)NC(=O)CCCCCCCCCCn1ccnc1)C(=O)NCCC1CCCCC1`, the Ki in test [5] worked out at 4200 nM; in test [4], 760 nM. The values for the concentration for half-maximal inhibition (IC50) in test [1] and in test [2] were 11400 nM and 1600 nM, respectively. Further, in test [3], the Selectivity was found to be 7.1.
